# Test results as given in patent US11219625B2, “Inhibitors of N-linked glycosylation and methods using same” (YALE UNIVERSITY, priority 2015, dated 2022).
# Tests used:
# Format in all cases: cell-based
# [1] = tested on: A549 cells; experiment: Apoptosis by flow cytometry (Annexin-V, 7-AAD), A549; conditions: A549, NGI-1 10 μM for 2 or 5 days, or Tn 1 μM
# Protocol: (§1) Analysis of apoptosis susceptibility in A549 and PC9 NSCLC cell lines followed treatment with NGI-1 10 μM or Tn 1 μM for 2 days was done by flow cytometry after staining the cells with Annexin-V (early apoptosis) and 7-AAD (viability dye). […] FIG. 9C: Western blot of BIP protein for A549 and PC9 cells after treatment with 10 μM NGI-1 for 6, 12 or 24 h. The expression of GAPDH was used as a loading control.
# [2] = tested on: PC9 cells; experiment: MTT proliferation assay, PC9; conditions: PC9, 1 μM tunicamycin
# Protocol: (§2) FIGS. 4A-4H illustrate the finding that NGI-1 blocks RTK driven proliferation. FIG. 4A illustrates western blot analysis of EGFR phosphorylation (Y1173) and gel mobility in PC9 (EGFR-mutant) and A549 (k-ras mutant) NSCLC cells after 10 μM NGI-1 treatment for 24 h. […] Actin expression was used as a control for protein loading. FIG. 4B illustrates MTT assays results of PC9 following treatment with 10 μM NGI-1 or 1 μM tunicamycin for a total of 5 d. Relative proliferation id reported in fold increase from day 0. FIG. 4C illustrates MTT assays results of A549 following treatment with 10 μM NGI-1 or 1 μM tunicamycin for a total of 5 d. Relative proliferation id reported in fold increase from day 0. FIG. 4D illustrates protein phosphorylation profiles of PC9 cells analyzed by phospho-protein array to assess the response of PC9 to 10 μM NGI-1 for 24 h. FIG. 4E illustrates protein phosphorylation profiles of A549 cells analyzed by phospho-protein array to assess the response of A549 to 10 μM NGI-1 for 24 h. […]
# (§3) Growth rates were determined by CellTiter 96 NonRadioactive Cell Proliferation Assay (Promega; Madison, Wis. USA) according to the manufacturer's directions. […] Cell numbers were estimated after 0, 3, and 5 days by adding MTT [(3-(4,5-Dimethylthiazol-2-yl)-2,5-diphenyltetrazolium bromide] reagent to the wells 4 hours before taking the spectrophotometric reading (absorbance at 570 nm).
# [3] = tested on: lipid linked oligosaccharides (LLOs); experiment: FACE analysis of lipid linked oligosaccharides; conditions: FACE, FIG. 2B
# Protocol: Fluorophore assisted carbohydrate electrophoresis (FACE) was performed as previously described (Gao, et al., Glycobiology 2002, 12, 353-360; Gao, et al., J Biol Chem 2005, 280, 17901-17909). Control (Ac-Gln-Tyr-Thr-CONH2) and acceptor (Ac-Asn-Tyr-Thr-CONH2) peptides were used for permeabilized cell experiments. Metabolic labeling of Hela cells, transfection of prosaposin (pSAP) and steroid hormone binding globulin (SHBG) vectors, and knockdown of SIT3A and STT3B to monitor N-linked glycosylation knockdown were performed as described (Shrimal, et al., J Cell Biol 2013, 201, 81-95). Western blot analysis was performed as previously described (Bennett, et al., Transl Oncol 2013, 6, 382-391). The following primary antibodies were used: rabbit anti-EGFR (sc-03; Santa Cruz Biotechnology; 1:1000), rabbit anti-phospho (Tyr1173) EGF Receptor (Cell Signaling; 1:1000), rabbit anti-p21 Waf1/Cip1 (12D1; Cell Signaling; 1:1000), rabbit anti-Cyclin D1 (Cell Signaling; 1:1000), mouse anti-β-Actin (8H10D10; Cell Signaling; 1:1000). For phospho-protein array analysis, PC9 and A549 cells were cultured in 6-well plates in serum-containing medium and treated with or without 10 μM NGI-1 for 24 hours. […]
# [4] = tested on: PC9 cells; experiment: Apoptosis by flow cytometry (Annexin-V, 7-AAD), PC9; conditions: PC9, NGI-1 10 μM for 2 or 5 days, or Tn 1 μM
# Protocol: as §1
# [5] = tested on: A549 cells; experiment: MTT proliferation assay, A549; conditions: A549, 10 μM NGI-1 or 1 μM tunicamycin
# Protocol: as §2, §3
substance,measurement,setting,value
tunicamycin [reference compound],induction of apoptosis,[1],apoptosis was activated
same,"effect on proliferation, MTT",[2],immediately blocks proliferation in both cell lines
same,effect on LLO production,[3],blocked all LLO production
same,induction of apoptosis,[4],apoptosis was activated
same,"effect on proliferation, MTT",[5],immediately blocks proliferation in both cell lines
